Reference: BindingDB's records for doi:10.7270/Q2BR8QM3 (Nmmlsc, 2008)

These compounds were tested against T1, Bcl-2-like protein 2 (Homo sapiens, UniProt Q92843) (assay: Bcl-W/Bim binding regulators – biochemical, multiplexed, bead-based flow cytometry, fluorescence, dose response (AID 1330)). Conditions: not given.
T1 sequence (Q92843 whole entry): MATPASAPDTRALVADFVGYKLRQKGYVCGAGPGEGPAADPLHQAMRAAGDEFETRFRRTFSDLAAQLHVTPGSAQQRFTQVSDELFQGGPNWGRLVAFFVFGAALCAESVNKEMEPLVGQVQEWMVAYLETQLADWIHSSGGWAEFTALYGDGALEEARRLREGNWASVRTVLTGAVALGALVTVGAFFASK

| Structure (SMILES) | EC50 [µM] |
| --- | --- |
| CN1CCc2cccc3c2[C@@H]1Cc1ccc(O)c(O)c1-3 | 9.95 |
| COc1cccc(CN=Nc2nn3cnnc3c3ccccc23)c1O | 0.49 |
| CCC(/C=C1\Sc2ccc(OC)cc2N1CCO)=C\c1sc2ccc(OC)cc2[n+]1CCO | 22.1 |
| Cc1nc2ncccn2c1-c1csc(Nc2ccc(O)cc2)n1 | 0.33 |
| CCN(CC)S(=O)(=O)c1cccc(C(=O)NN=Cc2ccc(O)c(O)c2O)c1 | 5.13 |
| COc1ccc(CC(=O)Nc2ccc(-c3nc4cc(C)ccc4o3)c(O)c2)cc1OC [2-(3,4-dimethoxyphenyl)-N-[(4Z)-3-keto-4-(5-methyl-3H-1,3-benzoxazol-2-ylidene)cyclohexa-1,5-dien-1-yl]acetamide] | 10.1 |

Results, then the compound that gave them:

| EC50 [µM] | Structure (SMILES) |
| --- | --- |
| 1.81 | COCCN=c1scc(-c2ccco2)n1N=Cc1ccc(O)c(O)c1O |
| 6.03 | O=C(NCc1ccccc1)c1ccc2nc(-c3ccco3)c(-c3ccco3)nc2c1 [2,3-bis(furan-2-yl)-N-(phenylmethyl)quinoxaline-6-carboxamide] |
| 7.22 | O=C(NCc1ccccn1)c1ccc2nc(-c3ccco3)c(-c3ccco3)nc2c1 [2,3-di-2-furyl-N-(pyridin-2-ylmethyl)quinoxaline-6-carboxamide] |

Same assay, conditions: inactive by the depositor's call

| Structure (SMILES) | EC50 [µM] |
| --- | --- |
| CCN(CC)c1ccc(-c2nn3c(-c4cccnc4)nnc3s2)cc1 | 12 |
| CCOCCCNc1nc(S)nc2cc(OC)c(OC)cc12 | 2.2 |
| COCCNc1[nH]c(=S)nc2cc(OC)c(OC)cc12 | 3.86 |
| CN1CCN(C2=C(Cl)C(=O)C(c3cnc(N4CCCCC4)s3)=C(Cl)C2=O)CC1 | 0.04 |
| CCOC(=O)c1ccc(Nc2nc(C(=O)OCC)nc3ccccc23)cc1 | 2.67 |
| CCOCCCn1c(N)c(C(=O)Nc2sc3c(c2C(=O)OC)CCCC3)c2nc3ccccc3nc21 | 1.8 |
| CCN1C(=O)/C(=C/C=C2\C=CN(CC)c3ccccc32)SC1=S | 15.9 |
| COc1cc2nc(=S)n(CCCN3CCOCC3)c(N)c2cc1OC | 9.25 |
| CN(C)c1ncc(C2=C(Cl)C(=O)C(N3CCCC3)=C(Cl)C2=O)s1 | 0.05 |
| Cc1ccc(C)c(/C=C/C(=O)c2ccccc(=O)c2O)c1 | 8.51 |
| O=C(NC1=C(Nc2ccc(Cl)cc2)C(=O)c2ccccc2C1=O)c1ccccc1 | 10.1 |
| CCOC(=O)c1c(NC(C)=O)sc2c(O)c(Br)cc(Br)c12 | 40.3 |
| CCOc1ccccc1CNc1ccc(O)cc1 | 2.31 |
| COc1cc2nc(=S)[nH]c(NCCCOC(C)C)c2cc1OC | 9 |
| Cc1ccc(CNc2ccc3c(c2)OCO3)c(C)c1 [1,3-benzodioxol-5-yl(2,4-dimethylbenzyl)amine] | 44.2 |
| COCCNC(=S)Nc1cc(OC)c(OC)cc1C#N [1-(2-cyano-4,5-dimethoxy-phenyl)-3-(2-methoxyethyl)thiourea] | 14.5 |
| Cc1ccc(C(=O)/C=C/c2ccc(-c3ccc(C)cc3)o2)cc1 [1-p-Tolyl-3-(5-p-tolyl-furan-2-yl)-propenone] | 1.02 |

Continued, values first:

| EC50 [µM] | Structure (SMILES) |
| --- | --- |
| 3.56 | Cc1ccc(-c2ccc(/C=C/C(=O)c3ccccc3)o2)cc1 |
| 20.6 | O=S1(=O)N=C(N(CCO)N=C/C=C/c2ccccc2)c2ccccc21 |
| 16.3 | COc1ccc(-n2c(=O)c3ccccc3c3ccccc3c2=O)c(OC)c1 |
| 14.9 | O=C(Nc1ccc2nc(-c3ccco3)c(-c3ccco3)nc2c1)N1CCN(c2ccccn2)CC1 |
| 14.8 | O=C(c1ccccc1)c1ccc2nc(-c3ccco3)c(-c3ccco3)nc2c1 |
| 2.26 | CC1N(C)c2cccc3cccc(c23)N1C [1,2,3-trimethyl-2,3-dihydro-1H-perimidine] |
| 28.3 | COc1ccc2nc(-c3ccco3)c(-c3ccco3)nc2c1 [2,3-di-2-furyl-6-methoxyquinoxaline] |
| 18.2 | O=C(Nc1ccccc1)c1ccc2nc(-c3ccco3)c(-c3ccco3)nc2c1 [2,3-di-2-furyl-N-phenyl-6-quinoxalinecarboxamide] |
| 6.62 | c1coc(C2=Nc3cccc4cccc(c34)N2)c1 [2-(2-furanyl)-1H-perimidine] |
